# Experimental data as given in article PMC4774972, “Activity and Predicted Nephrotoxicity of Synthetic Antibiotics Based on Polymyxin B” (Journal of Medicinal Chemistry, 2016).
# Bridge positions count the residues as written; N and C are the ends. Square brackets hold non-standard residues; d marks the D form. Peptide text beside a SMILES is read from it. * marks the point of attachment. Octanoyl(6-Me) = CCC(C)CCCCC(=O)*; Octanoyl = CCCCCCCC(=O)*; Dab = NCC[C@H](N)C(=O)O
# Tests used:
# HepG2 = settings: CC50 HepG2 (µM)
# [1] = tested on: K. pneumoniae CI Koprana 100650661:1, PmxR; settings: MIC K. pneumoniae CI Koprana 100650661:1, PmxR (µg/mL)
# [2] = tested on: K. pneumoniae ATCC 700603, MDR; settings: MIC K. pneumoniae ATCC 700603, MDR(µg/mL)
# K. pneumoniae ATCC 13883 = settings: MIC K. pneumoniae ATCC 13883 (µg/mL)
# [3] = tested on: K. pneumoniae ATTC BAA-2146, NDM-1 pos; settings: MIC K. pneumoniae ATTC BAA-2146, NDM-1 pos (µg/mL)
# [4] = tested on: K. pneumoniae CI 138-16357-20362, PmxR; settings: MIC K. pneumoniae CI 138-16357-20362, PmxR (µg/mL)
# [5] = tested on: P. aeruginosa FADDI-PA070, PmxR; settings: MIC P. aeruginosa FADDI-PA070, PmxR (µg/mL)
# P. aeruginosa ATCC 27853 = settings: MIC P. aeruginosa ATCC 27853 (µg/mL)
# [6] = tested on: S. aureus ATCC 25923, MSSA; settings: MIC S. aureus ATCC 25923, MSSA (µg/mL)
# [7] = tested on: P. aeruginosa PA9704, PmxR; settings: MIC P. aeruginosa PA9704, PmxR (µg/mL)
# [8] = tested on: A. baumannii CI Ptyela 100734512:2, PmxR; settings: MIC A. baumannii CI Ptyela 100734512:2, PmxR (µg/mL)
# E. coli ATCC 25922 = settings: MIC E. coli ATCC 25922 (µg/mL)
# A. baumannii ATCC 19606 = settings: MIC A. baumannii ATCC 19606 (µg/mL)
# [9] = tested on: A. baumannii CI Ptyela 100734512:2, PmxR; experiment: microbe, parasite or virus in culture; format: cell-based, Acinetobacter baumannii; settings: carbapenem & polymyxin resistant clinical isolate; MHB, 5 × 10^5 CFU/mL, 18 h at 37 °C
# Protocol: (§1) Bacteria were either obtained from American Type Culture Collection (ATCC; Manassas, VA, USA) or independent academic clinical isolate collections, as listed in Table S2. Bacteria were cultured in nutrient broth (NB; Bacto Laboratories, catalog no. 234000) or Muller Hinton broth (MHB; Bacto Laboratories, catalog no. 211443) at 37 °C overnight with shaking (∼180 rpm). A sample of each culture was then diluted 50-fold in fresh MHB and incubated at 37 °C for 1.5–3 h with shaking (∼180 rpm). Compound stock solutions were prepared as 0.64 or 2.56 mg/mL in water. The compounds, at twice the final desired concentration, were serially diluted 2-fold across the wells of 96-well plates (Polystyrene, Corning, catalogue No. 3370). Mid log phase bacterial cultures (after 1.5–3 h incubation) were diluted to a final concentration of 5 × 10^5 colony forming units (CFU)/mL, and 50 μL was added to each well giving a final compound concentration range of 32 μg/mL to 0.015 μg/mL (128–0.06 μg/mL for colistin and polymyxin B against the polymyxin resistant clinical isolates). MICs were determined visually after 18 h of incubation at 37 °C, with the MIC defined as the lowest compound concentration at which no bacterial growth was visible.
# (§2) Table S2. Bacterial strains used for Minimum Inhibitory Concentration (MIC) […]
# (§3) Organism Strain Strain description Strain Source
# (§4) Escherichia coli ATCC 25922 FDA strain Seattle 1946 ATCC
# (§5) Klebsiella pneumoniae ATCC 13883 Control strain ATCC
# (§6) Klebsiella pneumoniae ATCC 700603 Multi-drug resistant ATCC
# (§7) Klebsiella pneumoniae BAA-2146 Metallo-beta-lactamase- ATCC
# (§8) Acinetobacter baumannii ATCC 19606 Type strain ATCC
# (§9) Pseudomonas aeruginosa ATCC 27853 Type strain ATCC
# (§10) Pseudomonas aeruginosa FADDI-PA070 Clinical isolate, Nation and Li labs, polymyxin resistant Monash University
# (§11) Clinical isolate, Wang Hengzhuang, Pseudomonas aeruginosa PA9704 polymyxin resistant University Hospital of […]
# (§12) Ptyela Clinical isolate, Ilias Karaiskos and Acinetobacter baumannii Carbapenem & Helen Giamarellou
# (§13) Clinical isolate, Medicine, Hygeia
# (§14) Klebsiella pneumoniae Koprana Carbapenem, & General Hospital, […]
# (§15) Clinical isolate, (Instituto Dante […]
# (§16) polymyxin resistant Cardiologia, São […]
# HepG2 cells = experiment: Cytotoxicity assay (resazurin assay); format: cell-based, human; settings: 4000 cells/well, 24 h incubation with compound, fluorescence 560/590
# Protocol: Cytotoxicity to HEK293 and HepG2 cells was determined using the resazurin assay.[67],[68] […] Compounds were then added into each well. After 24 h incubation, 5 μM resazurin was added per well and incubated at 37 °C for 2 h. Fluorescence intensity was then read using a Polarstar Omega with excitation/emission 560/590. The data were then analyzed using GraphPad Prism 6 software. CC50 values were determined using GraphPad Prism 6 software (Inc. La Jolla, CA).
# [10] = tested on: S. aureus ATCC 25923, MSSA; experiment: microbe, parasite or virus in culture; format: cell-based, Staphylococcus aureus; settings: MHB, 5 × 10^5 CFU/mL, read visually after 18 h at 37 °C
# Protocol: as §1, §2, §3, §4, §5, §6, §7, §8, §9, §10, §11, §12, §13, §14, §15, §16
# [11] = tested on: P. aeruginosa FADDI-PA070, PmxR; format: cell-based, Pseudomonas aeruginosa; settings: polymyxin resistant clinical isolate; MHB, 5 × 10^5 CFU/mL, 18 h at 37 °C
# Protocol: as §1, §2, §3, §4, §5, §6, §7, §8, §9, §10, §11, §12, §13, §14, §15, §16
# [12] = tested on: K. pneumoniae CI Koprana 100650661:1, PmxR; experiment: microbe, parasite or virus in culture; format: cell-based, Klebsiella pneumoniae; settings: carbapenem & polymyxin resistant clinical isolate; MHB, 5 × 10^5 CFU/mL, 18 h at 37 °C
# [13] = tested on: K. pneumoniae CI 138-16357-20362, PmxR; experiment: microbe, parasite or virus in culture; format: cell-based, Klebsiella pneumoniae; settings: carbapenem & polymyxin resistant clinical isolate; MHB, 5 × 10^5 CFU/mL, 18 h at 37 °C
MIC [1] [µg/mL],MIC [2] [µg/mL],MIC (K. pneumoniae ATCC 13883) [µg/mL],MIC [3] [µg/mL],MIC [4] [µg/mL],MIC [5] [µg/mL],MIC (P. aeruginosa ATCC 27853) [µg/mL],MIC [6] [µg/mL],MIC [7] [µg/mL],MIC [8] [µg/mL],MIC (E. coli ATCC 25922) [µg/mL],MIC (A. baumannii ATCC 19606) [µg/mL],SMILES,CC50 (HepG2) [µM],"MIC A. baumannii CI Ptyela 100734512:2, PmxR [9] [µg/mL]",HepG2 - CC50 (HepG2 cells) [µM],"MIC S. aureus ATCC 25923, MSSA [10] [µg/mL]","MIC P. aeruginosa FADDI-PA070, PmxR [11] [µg/mL]","MIC K. pneumoniae CI Koprana 100650661:1, PmxR [12] [µg/mL]","MIC K. pneumoniae CI 138-16357-20362, PmxR [13] [µg/mL]"
64,0.5,1,0.25,64,32,0.5,> 64,128,64,1,0.25,CCC(C)CCCCC(=O)N[C@@H](CCN)C(=O)N[C@H](C(=O)N[C@@H](CCN)C(=O)N[C@H]1CCNC(=O)[C@H]([C@@H](C)O)NC(=O)[C@H](CCN)NC(=O)[C@H](CCN)NC(=O)[C@H](CC(C)C)NC(=O)[C@@H](Cc2ccccc2)NC(=O)[C@H](CCN)NC1=O)[C@@H](C)O (stereo partly drawn),> 300,–,–,–,–,–,–
> 128,0.25,0.25,0.25,64,> 32,0.5,> 128,128,> 64,0.25,0.25,CCC(C)CCCCC(=O)N[C@@H](CCN)C(=O)N[C@H](C(=O)N[C@@H](CCN)C(=O)N[C@H]1CCNC(=O)[C@H]([C@@H](C)O)NC(=O)[C@H](CCN)NC(=O)[C@H](CCN)NC(=O)[C@H](CC(C)C)NC(=O)[C@@H](CC(C)C)NC(=O)[C@H](CCN)NC1=O)[C@@H](C)O (stereo partly drawn) ({Octanoyl(6-Me)}-[Dab]T[Dab][Dab][Dab][dL]L[Dab][Dab]T; lactam 4-C),> 300,–,–,–,–,–,–

SMILES,MIC [1] [µg/mL],MIC [2] [µg/mL],MIC (K. pneumoniae ATCC 13883) [µg/mL],MIC [3] [µg/mL],MIC [4] [µg/mL],MIC [5] [µg/mL],MIC (P. aeruginosa ATCC 27853) [µg/mL],MIC [6] [µg/mL],MIC [7] [µg/mL],MIC [8] [µg/mL],MIC (E. coli ATCC 25922) [µg/mL],MIC (A. baumannii ATCC 19606) [µg/mL],CC50 (HepG2) [µM],"MIC A. baumannii CI Ptyela 100734512:2, PmxR [9] [µg/mL]",HepG2 - CC50 (HepG2 cells) [µM],"MIC S. aureus ATCC 25923, MSSA [10] [µg/mL]","MIC P. aeruginosa FADDI-PA070, PmxR [11] [µg/mL]","MIC K. pneumoniae CI Koprana 100650661:1, PmxR [12] [µg/mL]","MIC K. pneumoniae CI 138-16357-20362, PmxR [13] [µg/mL]"
"CCCCCCCC(=O)N[C@@H](CCN)C(=O)N[C@H](C(=O)N[C@@H](CCN)C(=O)N[C@H]1CCNC(=O)[C@H]([C@@H](C)O)NC(=O)[C@H](CCN)NC(=O)[C@H](CCN)NC(=O)[C@H](CC(C)C)NC(=O)[C@@H](Cc2ccccc2)NC(=O)[C@H](CCN)NC1=O)[C@@H](C)O [Compound 11, polymyxin B3] (Octanoyl-[Dab]T[Dab][Dab][Dab][dF]L[Dab][Dab]T; lactam 4-C)",> 128,–,–,–,> 128,> 32,–,> 128,> 128,> 64,–,–,> 300,>64,>300,>128,>32,>128,>128
